Measurements reported in patent US10517294B2, “Dihydrothiophene derivatives as insecticidal compounds” (priority 2012, dated 2019).

Legend:
Assay type in all cases: in vivo
Spodoptera littoralis = Spodoptera littoralis (Egyptian cotton leaf worm), sprayed cotton leaf discs; conditions: foliar, 72 h, application rate 200 ppm, L1 larvae on cotton leaf discs, 3 days after infestation, read-out: control (at least one of mortality, anti-feedant effect, growth inhibition)
Experimental: Cotton leaf discs were placed on agar in 24-well microtiter plates and sprayed with aqueous test solutions prepared from 10′000 ppm DMSO stock solutions. After drying the leaf discs were infested with five L1 larvae. The samples were assessed for mortality, anti-feedant effect, and growth inhibition 3 days after infestation. Control of Spodoptera littoralis by a test sample is noted when at least one of mortality, anti-feedant effect, and growth inhibition is better than the untreated sample.

Diabrotica balteata [1] = experiment: Diabrotica balteata (corn root worm), artificial diet; conditions: 120 h, application rate 200 ppm, L2 larvae on artificial diet, 5 days after infestation, read-out: control (at least one of mortality, growth inhibition)
Experimental: (§1) 24-well microtiter plates with artificial diet were treated with aqueous test solutions prepared from 10′000 ppm DMSO stock solutions by pipetting. After drying, the plates were infested with L2 larvae (6 to 10 per well). The samples were assessed for mortality and growth inhibition 5 days after infestation. Control of Diabrotica balteata by a test sample is noted when at least one of mortality and growth inhibition is better than the untreated sample.

Heliothis virescens = Heliothis virescens (tobacco budworm), eggs on artificial diet; conditions: application rate 200 ppm, eggs 0-24 h old on artificial diet, 5 days after infestation, read-out: control (at least one of egg mortality, larval mortality, growth inhibition)
Experimental: Eggs (0-24 h old) were placed in 24-well microtiter plates on artificial diet and treated with aqueous test solutions prepared from 10′000 ppm DMSO stock solutions by pipetting. The samples were assessed for egg mortality, larval mortality and growth inhibition 5 days after infestation. Control of Heliothis virescens by a test sample is noted when at least one of egg mortality, larval mortality and growth inhibition is better than the untreated sample.

Plutella xylostella = Plutella xylostella (diamond back moth), artificial diet; conditions: 120 h, application rate 200 ppm, L2 larvae on artificial diet, 5 days after infestation, read-out: control (at least one of mortality, growth inhibition)
Experimental: as §1, with “larvae (10” for “larvae (6”, “to 15” for “to 10”, “of Plutella xyllostella” for “of Diabrotica balteata”

Thrips tabaci = Thrips tabaci (onion thrips), sprayed sunflower leaf discs; conditions: foliar, 144 h, application rate 200 ppm, mixed ages on sunflower leaf discs, 6 days after infestation, read-out: control (mortality)
Experimental: (§2) Sunflower leaf discs were placed on agar in 24-well microtiter plates and sprayed with aqueous test solutions prepared from 10′000 ppm DMSO stock solutions. After drying the leaf discs were infested with a thrips population of mixed ages. The samples were assessed for mortality 6 days after infestation.

Tetranychus urticae = Tetranychus urticae (two-spotted spider mite), sprayed bean leaf discs; conditions: foliar, 192 h, application rate 200 ppm, mixed ages on bean leaf discs, 8 days after infestation, read-out: control (mortality, mobile stages)
Experimental: as §2, with “Bean” for “Sunflower”, “discs” for “discs were placed”, “were” for “and”, “mite” for “thrips”, “(mobile stages) 8” for “6”

Diabrotica balteata [2] = experiment: Diabrotica balteata (corn root worm), sprayed maize sprouts; conditions: 96 h, application rate 200 ppm, L2 larvae on sprayed maize sprouts, 4 days after infestation, read-out: control (at least one of mortality, growth inhibition)
Experimental: as §1, with “Maize sprouts, placed on an agar layer in 24-well” for “24-well”, “plates” for “plates with artificial diet”, “spraying.” for “pipetting.”, “4” for “5”

Euschistus heros = Euschistus heros (neotropical brown stink bug), sprayed soybean plants; conditions: 120 h, application rate 50 ppm, N2 nymphs on sprayed soybean plants, 5 days after infestation, read-out: control (at least one of mortality, growth inhibition)
Experimental: Two weeks old soybean plants were sprayed in a turn table spray chamber with the diluted spray solutions. After drying 2 soybean seeds were added and plants were infested with 10 N2 nymphs of the neotropical brown stink bug Euschistus heros in plastic test boxes. The samples were assessed for mortality and growth inhibition 5 days after infestation. Control of Euschistus heros by a test sample is noted when at least one of mortality and growth inhibition is better than the untreated sample.

N#Cc1cc(C2=CSC(c3cc(Cl)c(Cl)c(Cl)c3)(C(F)(F)F)C2)ccc1-n1cncn1 (stereo not shown) [Compound C1, 2-(1,2,4-triazol-1-yl)-5-[2-(3,4,5-trichlorophenyl)-2-(trifluoromethyl)-3H-thiophen-4-yl]benzonitrile]
≥ 80%: percent control (mortality, anti-feedant effect or growth inhibition) at 200 ppm (Spodoptera littoralis) | mortality at 200 ppm (Diabrotica balteata [1]) | mortality at 200 ppm (Heliothis virescens) | mortality at 200 ppm (Plutella xylostella)

Cc1cc(C2=CS[C@@](c3cc(Cl)cc(Cl)c3)(C(F)(F)F)C2)ccc1C(=O)N[C@H]1C[S@@+]([O-])C1 [Compound D8, 4-[(2S)-2-(3,5-dichlorophenyl)-2-(trifluoromethyl)-3H-thiophen-4-yl]-2-methyl-N-(1-oxothietan-3-yl)benzamide]
≥ 80%: percent control (mortality, anti-feedant effect or growth inhibition) at 200 ppm (Spodoptera littoralis) | mortality at 200 ppm (Thrips tabaci) | mortality at 200 ppm (Tetranychus urticae) | mortality at 200 ppm (Plutella xylostella) | mortality at 200 ppm (Diabrotica balteata [2])

Cc1cc(C2=CSC(c3cc(Cl)cc(Cl)c3)(C(F)(F)F)C2)ccc1C(=O)NC1CCC1 (stereo not shown) [Compound A1, N-cyclobutyl-4-[2-(3,5-dichlorophenyl)-2-(trifluoromethyl)-3H-thiophen-4-yl]-2-methyl-benzamide]
≥ 80%: percent control (mortality, anti-feedant effect or growth inhibition) at 200 ppm (Spodoptera littoralis) | mortality at 200 ppm (Thrips tabaci) | mortality at 200 ppm (Diabrotica balteata [1]) | mortality at 200 ppm (Heliothis virescens) | mortality at 200 ppm (Tetranychus urticae) | mortality at 200 ppm (Plutella xylostella) | mortality at 50 ppm (Euschistus heros)

Cc1cc(C2=CSC(c3cc(Cl)cc(Cl)c3)(C(F)(F)F)C2)ccc1C(=O)NC1CS(=O)(=O)C1 (stereo not shown) [Compound A4, 4-[2-(3,5-dichlorophenyl)-2-(trifluoromethyl)-3H-thiophen-4-yl]-N-(1,1-dioxothietan-3-yl)-2-methyl-benzamide]
≥ 80%: percent control (mortality, anti-feedant effect or growth inhibition) at 200 ppm (Spodoptera littoralis) | mortality at 200 ppm (Thrips tabaci) | mortality at 200 ppm (Diabrotica balteata [1]) | mortality at 200 ppm (Heliothis virescens) | mortality at 200 ppm (Tetranychus urticae) | mortality at 200 ppm (Plutella xylostella) | mortality at 50 ppm (Euschistus heros)

Cc1cc(C2=CSC(c3cc(Cl)cc(Cl)c3)(C(F)(F)F)C2)ccc1C(=O)NCC(F)(F)F (stereo not shown) [Compound A2, 4-[2-(3,5-dichlorophenyl)-2-(trifluoromethyl)-3H-thiophen-4-yl]-2-methyl-N-(2,2,2-trifluoroethyl)benzamide]
≥ 80%: percent control (mortality, anti-feedant effect or growth inhibition) at 200 ppm (Spodoptera littoralis) | mortality at 200 ppm (Thrips tabaci) | mortality at 200 ppm (Diabrotica balteata [1]) | mortality at 200 ppm (Heliothis virescens) | mortality at 200 ppm (Tetranychus urticae) | mortality at 200 ppm (Plutella xylostella) | mortality at 50 ppm (Euschistus heros)

Cc1cc(C2=CSC(c3cc(Cl)cc(Cl)c3)(C(F)(F)F)C2)ccc1C(=O)NC1CSC1 (stereo not shown) [Compound A5, 4-[2-(3,5-dichlorophenyl)-2-(trifluoromethyl)-3H-thiophen-4-yl]-2-methyl-N-(thietan-3-yl)benzamide]
≥ 80%: percent control (mortality, anti-feedant effect or growth inhibition) at 200 ppm (Spodoptera littoralis) | mortality at 200 ppm (Thrips tabaci) | mortality at 200 ppm (Diabrotica balteata [1]) | mortality at 200 ppm (Heliothis virescens) | mortality at 200 ppm (Tetranychus urticae) | mortality at 200 ppm (Plutella xylostella) | mortality at 50 ppm (Euschistus heros)

Cc1cc(C2=CSC(c3cc(Cl)cc(Cl)c3)(C(F)(F)F)C2)ccc1C(N)=O (stereo not shown) [Compound A6, 4-[2-(3,5-dichlorophenyl)-2-(trifluoromethyl)-3H-thiophen-4-yl]-2-methyl-benzamide]
≥ 80%: percent control (mortality, anti-feedant effect or growth inhibition) at 200 ppm (Spodoptera littoralis) | mortality at 200 ppm (Diabrotica balteata [1]) | mortality at 200 ppm (Heliothis virescens) | mortality at 200 ppm (Plutella xylostella)

CON/C=N/C(=O)c1ccc(C2=CSC(c3cc(Cl)cc(Cl)c3)(C(F)(F)F)C2)cc1C (stereo not shown) [Compound A10, (NE)-4-[2-(3,5-dichlorophenyl)-2-(trifluoromethyl)-3H-thiophen-4-yl]-N-[(methoxyamino)methylene]-2-methyl-benzamide]
≥ 80%: percent control (mortality, anti-feedant effect or growth inhibition) at 200 ppm (Spodoptera littoralis) | mortality at 200 ppm (Diabrotica balteata [1]) | mortality at 200 ppm (Heliothis virescens) | mortality at 200 ppm (Tetranychus urticae) | mortality at 200 ppm (Plutella xylostella)

Cc1cc(C2=C[S+]([O-])C(c3cc(Cl)cc(Cl)c3)(C(F)(F)F)C2)ccc1C(=O)NCC(F)(F)F (stereo not shown) [Compound B1, 4-[2-(3,5-dichlorophenyl)-1-oxido-2-(trifluoromethyl)-3H-thiophen-1-ium-4-yl]-2-methyl-N-(2,2,2-trifluoroethyl)benzamide]
≥ 80%: percent control (mortality, anti-feedant effect or growth inhibition) at 200 ppm (Spodoptera littoralis) | mortality at 200 ppm (Heliothis virescens) | mortality at 200 ppm (Plutella xylostella)

CCN1OC[C@@H](NC(=O)c2ccc(C3=CSC(c4cc(Cl)cc(Cl)c4)(C(F)(F)F)C3)cc2C)C1=O (stereo partly drawn) [Compound A9, 4-[2-(3,5-dichlorophenyl)-2-(trifluoromethyl)-3H-thiophen-4-yl]-N-[(4R)-2-ethyl-3-oxo-isoxazolidin-4-yl]-2-methyl-benzamide]
≥ 80%: percent control (mortality, anti-feedant effect or growth inhibition) at 200 ppm (Spodoptera littoralis) | mortality at 200 ppm (Thrips tabaci) | mortality at 200 ppm (Diabrotica balteata [1]) | mortality at 200 ppm (Heliothis virescens) | mortality at 200 ppm (Tetranychus urticae) | mortality at 200 ppm (Plutella xylostella) | mortality at 50 ppm (Euschistus heros)

Cc1cc(C2=CSC(c3cc(Cl)cc(Cl)c3)(C(F)(F)F)C2)ccc1C(=O)N[C@H]1C[S@@+]([O-])C1 (stereo partly shown) [Compound A7, 4-[2-(3,5-dichlorophenyl)-2-(trifluoromethyl)-3H-thiophen-4-yl]-2-methyl-N-(1-oxidothietan-1-ium-3-yl)benzamide]
≥ 80%: percent control (mortality, anti-feedant effect or growth inhibition) at 200 ppm (Spodoptera littoralis) | mortality at 200 ppm (Thrips tabaci) | mortality at 200 ppm (Diabrotica balteata [1]) | mortality at 200 ppm (Heliothis virescens) | mortality at 200 ppm (Tetranychus urticae) | mortality at 200 ppm (Plutella xylostella) | mortality at 50 ppm (Euschistus heros)

Cc1cc(C2=CSC(c3cc(Cl)cc(Cl)c3)(C(F)(F)F)C2)ccc1C(=O)NCc1ccccn1 (stereo not shown) [Compound A8, 4-[2-(3,5-dichlorophenyl)-2-(trifluoromethyl)-3H-thiophen-4-yl]-2-methyl-N-(2-pyridylmethyl)benzamide]
≥ 80%: percent control (mortality, anti-feedant effect or growth inhibition) at 200 ppm (Spodoptera littoralis) | mortality at 200 ppm (Thrips tabaci) | mortality at 200 ppm (Diabrotica balteata [1]) | mortality at 200 ppm (Heliothis virescens) | mortality at 200 ppm (Tetranychus urticae) | mortality at 200 ppm (Plutella xylostella)

Cc1cc(C2=CS(=O)(=O)C(c3cc(Cl)cc(Cl)c3)(C(F)(F)F)C2)ccc1C(=O)NCC(F)(F)F (stereo not shown) [Compound B2, 4-[2-(3,5-dichlorophenyl)-1,1-dioxo-2-(trifluoromethyl)-3H-thiophen-4-yl]-2-methyl-N-(2,2,2-trifluoroethyl)benzamide]
≥ 80%: percent control (mortality, anti-feedant effect or growth inhibition) at 200 ppm (Spodoptera littoralis) | mortality at 200 ppm (Diabrotica balteata [1]) | mortality at 200 ppm (Heliothis virescens) | mortality at 200 ppm (Plutella xylostella)

Cc1cc(C2=CSC(c3cc(Cl)cc(Cl)c3)(C(F)(F)F)C2)ccc1C(=O)NCC(=O)NCC(F)(F)F (stereo not shown) [Compound A3, 4-[2-(3,5-dichlorophenyl)-2-(trifluoromethyl)-3H-thiophen-4-yl]-2-methyl-N-[2-oxo-2-(2,2,2-trifluoroethylamino)ethyl]benzamide]
≥ 80%: percent control (mortality, anti-feedant effect or growth inhibition) at 200 ppm (Spodoptera littoralis) | mortality at 200 ppm (Thrips tabaci) | mortality at 200 ppm (Diabrotica balteata [1]) | mortality at 200 ppm (Heliothis virescens) | mortality at 200 ppm (Tetranychus urticae) | mortality at 200 ppm (Plutella xylostella) | mortality at 50 ppm (Euschistus heros)

CCN1OC[C@@H](NC(=O)c2ccc(C3=CS[C@@](c4cc(Cl)cc(Cl)c4)(C(F)(F)F)C3)cc2C)C1=O [Compound D7, 4-[(2S)-2-(3,5-dichlorophenyl)-2-(trifluoromethyl)-3H-thiophen-4-yl]-N-(2-ethyl-3-oxo-isoxazolidin-4-yl)-2-methyl-benzamide]
≥ 80%: percent control (mortality, anti-feedant effect or growth inhibition) at 200 ppm (Spodoptera littoralis) | mortality at 200 ppm (Thrips tabaci) | mortality at 200 ppm (Tetranychus urticae) | mortality at 200 ppm (Plutella xylostella) | mortality at 200 ppm (Diabrotica balteata [2])
